Common to all, as to assay type: functional, cell-based
In assay [1] the target is T1, Lysophosphatidic acid receptor 3 (Homo sapiens) (UniProt Q9UBY5).
T1 sequence (whole entry): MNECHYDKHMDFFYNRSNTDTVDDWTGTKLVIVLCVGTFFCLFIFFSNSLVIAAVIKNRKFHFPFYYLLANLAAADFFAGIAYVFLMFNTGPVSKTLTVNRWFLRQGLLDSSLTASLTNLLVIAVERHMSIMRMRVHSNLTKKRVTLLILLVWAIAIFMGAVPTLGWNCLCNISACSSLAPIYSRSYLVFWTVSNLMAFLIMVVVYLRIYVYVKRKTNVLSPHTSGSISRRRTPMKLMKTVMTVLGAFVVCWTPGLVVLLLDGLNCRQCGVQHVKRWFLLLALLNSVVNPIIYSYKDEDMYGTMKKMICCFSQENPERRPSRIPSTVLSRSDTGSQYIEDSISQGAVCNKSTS
Nature of the assay: Antagonist activity at human LPA3R expressed in Chem-1 cells assessed as inhibition of lysophosphatidic acid-induced calcium mobilization at 30 uM by FLIPR assay.

The nature of assay [2]: Antiproliferative activity against human NHLF cells assessed as inhibition of lysophosphatidic acid-induced proliferation by BrdU incorporation assay. For orientation: Incorporation of labelled thymidine or its analogues reports DNA synthesis.
The target of assay [3] is Lysophosphatidic acid receptor 1 (Homo sapiens) (UniProt Q92633). As to the kind of experiment: Antagonist activity at human LPA1R expressed in Chem-1 cells assessed as inhibition of lysophosphatidic acid-induced calcium mobilization at 30 uM by FLIPR assay.
Chain of Lysophosphatidic acid receptor 1 (Homo sapiens) (Q92633 whole entry): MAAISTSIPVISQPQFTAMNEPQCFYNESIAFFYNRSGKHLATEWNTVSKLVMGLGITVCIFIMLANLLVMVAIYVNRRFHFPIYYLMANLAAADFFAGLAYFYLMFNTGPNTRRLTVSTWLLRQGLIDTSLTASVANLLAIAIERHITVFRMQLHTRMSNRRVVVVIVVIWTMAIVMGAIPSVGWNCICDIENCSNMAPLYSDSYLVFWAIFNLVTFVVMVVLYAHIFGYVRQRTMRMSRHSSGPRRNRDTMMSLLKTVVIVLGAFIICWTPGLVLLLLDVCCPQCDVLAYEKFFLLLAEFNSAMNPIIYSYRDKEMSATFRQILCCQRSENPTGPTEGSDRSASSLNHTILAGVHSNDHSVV
Assay [4] deals with T1, Lysophosphatidic acid receptor 3 (Homo sapiens). As to the kind of experiment: Antagonist activity at human LPA3R expressed in Chem-1 cells assessed as inhibition of lysophosphatidic acid-induced calcium mobilization by FLIPR assay.

The structures appear in SMILES notation. Active and inactive are the calls of the source. The rule behind the calls is not given here.

What is called inhibition is how much of the control response was suppressed. For orientation: IC50 means the concentration at which inhibition is half-maximal. As to `COc1ccc(C(=O)/C(=N\C2CCCCC2)n2ncc(C#N)c2N)c(OC)c1`, the inhibition in assay [1] came to 30%; in assay [3], 85%. The IC50 in assay [2] is 3870 nM.
On to `COc1cc(F)ccc1C(=O)/C(=N\C1CCCC1)n1ncc(C#N)c1N`, for which the inhibition in assay [1] was 3%; in assay [3], 49%.
On to `COc1ccc(-c2[nH]c3c(C#N)cnn3c2NC2CCCC2)c(OC)c1`, for which the inhibition entry in assay [4] is “inactive”.
Take `COc1cc2c(cc1C(=O)/C(=N\C1CCCC1)n1ncc(C#N)c1N)CCC2`: the inhibition was found to be 19% in assay [1] and 78% in assay [3].
For `COc1ccc(C(=O)/C(=N\C2CCCC2)n2ncc(C#N)c2N)c(OC)c1`, the inhibition in assay [1] came out at 23%; in assay [3], 98%. The IC50 in assay [2] is 29 nM.
`COc1cc(OC)c(C(=O)/C(=N\C2CCCC2)n2ncc(C#N)c2N)cc1OC`: the inhibition in assay [1] came to 8%; in assay [3], 79%.
As for `COc1ccc(C(=O)/C(=N\C2CCCC2)n2ncc(C#N)c2N)c(F)c1`, the inhibition in assay [1] was 4%; in assay [3] it was 100%. Further, the IC50 in assay [2] amounted to 104 nM.
The matching figures for `COc1cc2ccccc2cc1C(=O)/C(=N\C1CCCC1)n1ncc(C#N)c1N`: 2%, 78% and 184 nM.
Regarding `CCc1ccc(C(=O)/C(=N\C2CCCC2)n2ncc(C#N)c2N)cc1`, the figures for the inhibition in assay [1] and in assay [3] were 14% and 100%, respectively. Moreover, the IC50 in assay [2] came to 533 nM.
For `N#Cc1cnn(/C(=N/C2CCCC2)C(=O)c2ccc(Br)cc2)c1N`, the inhibition in assay [1] stood at 1%; in assay [3] it was 96%.
As for `COc1cc(OCc2ccccc2)ccc1C(=O)/C(=N\C1CCCC1)n1ncc(C#N)c1N`, the figures for the inhibition in assay [1] and in assay [3] were 23% and 48%, respectively.
Take `COc1cc(C(=O)/C(=N\C2CCCC2)n2ncc(C#N)c2N)cc(OC)c1OC`: the figures for the inhibition in assay [1] and in assay [3] were 14% and 13%, respectively.
In the case of `COc1ccc(C(=O)/C(=N\C(C)C)n2ncc(C#N)c2N)c(OC)c1`, the inhibition in assay [1] stood at 25%; in assay [3] it was 88%. The IC50 in assay [2] is 27 nM.

Source of the values: ChEMBL document CHEMBL3351480, “Discovery of novel non-carboxylic acid 5-amino-4-cyanopyrazole derivatives as potent and highly selective LPA1R antagonists” (Bioorg Med Chem Lett, 2014).
